Reference: patent US20060094685A1, “Medicinal composition for drug-induced neuropathy” (priority 2002, published 2006)
Counter-ions that a name gives are not always drawn.

Legend:
[1] = test system: Mice With Acrylamide Induced Sensory Neuropathy; assay: Tail Flick Test using mice with acrylamide-induced sensory neuropathy; format: in vivo, mouse (male ICR strain); settings: CDP-choline·Na 100 mg/kg oral once a day for 1 week
Method: Experiment: Tail Flick Test Using Mice With Acrylamide Induced Sensory Neuropathy (In Vivo) (1) Preparation of Mouse With Acrylamide-induced Sensory Neuropathy Acrylamide (2.5 mg/mice) dissolved in injectable physiological saline was intraperitoneally administered to male ICR strain mice (7-week-old, 10 per group) 5 times a week for 1 week to induce sensory neuropathy. (2) Administration of CDP-choline CDP-choline·Na was dissolved in distilled water, and oral administration thereof (100 mg/kg per dose) was started on the same day as acrylamide once a day for 1 week. (3) Tail Flick Test A photothermic stimulation was given to the tail of mouse, and the reaction latency up to the motion of the tail upon sensing the heat was measured. The measurement results of the reaction latency of a control group, an acrylamide administration group and an acrylamide administration group with administration of CDP-choline (100 mg/kg) are shown in FIG. 2.

[2] = test system: Vincristine-induced Sensory Neuropathy Mouse; assay: Tail Flick Test using vincristine-induced sensory neuropathy mouse; format: in vivo, mouse (male ICR strain); settings: CDP-choline·Na 500 mg/kg oral once a day for 10 weeks
Method: Experiment: Tail Flick Test Using Vincristine-induced Sensory Neuropathy Mouse (In Vivo) (1) Preparation of Mouse with Vincristine-induced Sensory Neuropathy Vincristine (0.05 mg/kg for the first time, 0.125 mg/kg for the second time and the following) dissolved in injectable physiological saline was intraperitoneally administered to male ICR strain mice (7-week-old, 10 per group) twice a week for 10 weeks to induce sensory neuropathy. (2) Administration of CDP-choline CDP-choline·Na was dissolved in distilled water, and oral administration thereof (500 mg/kg per dose) was started on the same day as vincristine once a day for 10 weeks. (3) Tail Flick Test A photothermic stimulation was given to the tail of mouse, and the reaction latency up to the motion of the tail upon sensing the heat was measured. The measurement results of the reaction latency of a control group, a vincristine administration group and a vincristine administration group with administration of CDP-choline (500 mg/kg) are shown in FIG. 1.

SMILES: C[N+](C)(C)CCOP(=O)(O)OP(=O)([O-])OC[C@H]1O[C@@H](n2ccc(N)nc2=O)[C@H](O)[C@@H]1O [CDP-choline, cytidine 5′-diphosphocholine-monosodium salt]
- suppression of acrylamide-induced sensory neuropathy (hyperesthesia-like symptom) ([1]; started on the same day as acrylamide i.p. 5 times a week, 10 mice per group): almost completely suppressed
- reaction latency in Tail Flick Test ([1]; acrylamide-treated mice, compared to control group, FIG. 2): of the same level as the control group
- suppression of vincristine-induced sensory neuropathy (hyperesthesia-like symptom) ([2]; started on the same day as vincristine i.p. twice a week, 10 mice per group): almost completely suppressed
- reaction latency in Tail Flick Test ([2]; vincristine-treated mice, compared to control group, FIG. 1): of the same level as the control group
